{
  "source": "patent US9611500B2",
  "about": "“Method for detecting the presence of the viable cells in an endodontic sample” (KINGS COLLEGE LONDON, priority 2011, dated 2017)",
  "tested_on": "Multispecies mature biofilm from clinical isolates (Actinomyces radicidentis, Enterococcus faecalis, Propionibacterium acnes, Streptococcus epidermidis …)",
  "assay": "Viable post-experimental counts of multi-species biofilms on root halves after irrigation",
  "assay_type": "cell-based",
  "details": "1% NaOCl solution irrigation (5 ml) of root canals of extracted teeth with two-week biofilm; paper point sampling; FAA plates incubated anaerobically 7 days; triplicates",
  "text": "Twenty freshly extracted, single rooted teeth were obtained under ethical Approval (South East London ethical approval 10/H0804/056). Each tooth had the crown removed to obtain 15 mm long specimens, using a 0.3 mm thickness diamond wafering blade (Extec, Enfield, Conn., USA) on a 11-1180 Isomet low speed saw (Buehler, Düsseldorf, Germany). Root canal patency was confirmed using an ISO 10 K-file. Canals were instrumented with Gates Glidden (nr. 2-4) for coronal flaring followed by ProTaper F3 instrumentation and apical instrumentation with an ISO 45 K-file 1 mm short of the working length. Irrigation throughout the instrumentation was undertaken with sterile saline. […]\nMultispecies mature biofilm from clinical isolates, identified through sequencing (Actinomyces radicidentis, Enterococcus faecalis, Propionibacterium acnes, Streptococcus epidermidis, Streptococcus oxalis) were grown in 24 multiwell plates for two weeks on root halves using a modification of the established 5-day biofilm protocol (Gmür & Guggenheim 1983). […] The turbidity was adjusted with fresh mFUM to OD at 540 nm (Labsystems iEMS Reader MF) to 0.5. […]\nAfter each root had been subjected to its respective irrigation protocol and imaging steps, the root halves were aseptically placed in a 9 cm petri dish (SLS, East Riding of Yorkshire, UK). […] After the incubation, the numbers of colonies on FAA plates were counted. […]",
  "note": "Marks after values point to notes of the source that are not given here.",
  "data": [
    {"smiles": "OCl", "note": "[Sodium hypochlorite]", "values": [
      {"measurement": "Microbial counts expressed as log10 (Mean ± SE) after anaerobic growth", "result": "0.51* Log10"}
    ]}
  ]
}
